From patent US20260034277A1, “SYSTEMS AND METHODS FOR PATHOGEN INACTIVATION OF BLOOD PRODUCTS” (Cerus Corporation, priority 2024, published 2026)

Key:
[1] = system: adenovirus type 5 (Ad5); test: Adenovirus type 5 inactivation in platelet units with amotosalen/UVA, plaque assay; type: cell-based; conditions: for Log Reduction / Post-UVA PFU/mL: 250 mL platelets, UVA 3.8 J/cm^2
Procedure: Another study was performed evaluating pathogen inactivation with treatment profiles from Example 1 and the non-enveloped virus adenovirus type 5 (Ad5). Units of platelets, prepared in 47% plasma/53% PAS at a volume of 250 mL, were inoculated with Ad5 (targeting the final concentration in unit of approximately 4.5 or 6.5 log PFU/mL), and dosed with the target amotosalen concentration (45 μM or 50 μM) in an illumination container of an INTERCEPT® Blood System processing set. The units were mixed well, and samples were collected from each unit prior to UV illumination to determine pre-treatment viral titers and amotosalen concentration. The Ad5-contaminated platelet units were then subjected to a UVA light dose of 3.8 J/cm^2 using an illuminator with LED light sources having peak wavelength between 340-350 nm. Samples were collected post-illumination and both the pre- and post-UVA illumination samples were analyzed by standard plaque assay to determine the level of virus inactivation.

[2] = Residual amotosalen (S-59) pre- and post-UVA in treated platelets, HPLC, manual dosing; type: physicochemical; conditions: for Post-UVA S-59: platelets 47% plasma/53% PAS
Procedure: Multiple studies were performed to determine the level of residual compound remaining after photochemical treatment of platelets with a psoralen for pathogen inactivation. More specifically, the studies were performed using a range of platelet volumes (e.g., 200 mL-450 mL; 50 mL volume increments) and using a single initial input concentration of the psoralen compound, amotosalen (S-59) by changing input volume. For each volume tested, units of platelets, prepared in 47% plasma/53% PAS, were pooled and split into two to three individual units, each in an illumination container of an INTERCEPT® Blood System processing set. The individual units were each dosed with amotosalen from an initial starting concentration (e.g., stock solution) at a volume needed to achieve a final 70 μM target concentration for each platelet volume, mixed well, and subjected to illumination with UVA light. The doses of UVA light tested for each volume included, for example, one or more light doses ranging from 2.5 J/cm^2 to 6.5 J/cm^2. (e.g., 2.5-4.5 J/cm^2 for 200 mL, 3.5-4.0 J/cm^2 for 250 mL 4.5-6.5 J/cm^2 for 300 mL, 5.2 J/cm^2 for 350 mL, 5.5-6.5 J/cm^2 for 400 mL, 6.4-6.5 J/cm^2 for 450 mL). UVA treatment was performed in the illumination container using an illuminator device with LED light (e.g., narrow bandwidth) having peak wavelength between 340-350 nm. Samples were collected both pre- and post-UVA illumination for HPLC analysis of amotosalen concentration.
From the multiple studies above, UVA light doses that provided low residual amotosalen levels (e.g., less than 7.5 μM) post-UVA treatment were selected for each specified platelet volume. These light doses are shown in Table 1 below, together with a corresponding measured volume of platelets, which the light dose may be used in conjunction with. This exemplary light dose and volume relationship identified in the studies may be further defined in the graph of FIG. 4A, which plots UVA light dose versus volume for achieving low residual amotosalen levels.
Each of the 40 μM, 50 μM, 60 μM and 70 μM test conditions used 250 mL sample volumes and UVA light doses of 3.8 J/cm^2. Amotosalen concentrations were determined before and after illumination with UVA.

[3] = target S-59 45 μM, Pre-UVA 4.1 Log PFU/mL
[4] = target S-59 50 μM, Pre-UVA 4.5 Log PFU/mL
[5] = target S-59 50 μM, Pre-UVA 6.7 Log PFU/mL

Cc1oc2c(C)c3oc(=O)cc(C)c3cc2c1COCCN [S-59, 3-(2-aminoethoxymethyl)-2,5,9-trimethylfuro[3,2-g]chromen-7-one]
viral inactivation ([1]; each of the 45 μM or 50 μM target amotosalen input concentrations): greater than 4 logs | Log Reduction [1, 3]: >4.1 ± 0.2 log | Post-UVA PFU/mL [1, 3]: 0.0 ± 0.0 PFU/mL | Log Reduction [1, 4]: 4.5 ± 0.0 log | Post-UVA PFU/mL [1, 4]: 0.0 ± 0.0 PFU/mL | Log Reduction [1, 5]: ≥6.3 ± 0.5 log | Post-UVA PFU/mL [1, 5]: ≤6.9 ± 12.7 PFU/mL | Post-UVA S-59 ([2]; 200 mL, target 70 μM, UVA 3.2 J/cm^2): 4.5 ± 1.5 µM | Post-UVA S-59 ([2]; 250 mL, target 70 μM, UVA 3.8 J/cm^2): 5.0 ± 1.1 µM | Post-UVA S-59 ([2]; 300 mL, target 70 μM, UVA 4.5 J/cm^2): 5.1 ± 1.3 µM | Post-UVA S-59 ([2]; 350 mL, target 70 μM, UVA 5.2 J/cm^2): 5.0 ± 0.6 µM | Post-UVA S-59 ([2]; 400 mL, target 70 μM, UVA 6.0 J/cm^2): 4.4 ± 0.8 µM | Post-UVA S-59 ([2]; 450 mL, target 70 μM, UVA 6.4 J/cm^2): 5.2 ± 0.8 µM | Post-UVA residual amotosalen concentration ([2]; target 40 μM, 250 mL, UVA 3.8 J/cm^2): 2.3 ± 0.7 µM | Post-UVA residual amotosalen concentration ([2]; target 50 μM, 250 mL, UVA 3.8 J/cm^2): 3.0 ± 0.8 µM | Post-UVA residual amotosalen concentration ([2]; target 60 μM, 250 mL, UVA 3.8 J/cm^2): 3.9 ± 1.4 µM | Post-UVA residual amotosalen concentration ([2]; target 70 μM, 250 mL, UVA 3.8 J/cm^2): 5.0 ± 1.1 µM
